Experimental data from patent publication US20250120967A1, “TYROSINE KINASES INHIBITORS AND USES THEREOF” (GREAT NOVEL THERAPEUTICS BIOTECH & MEDICALS CORPORATION, priority 2023, published 2025).

Tests used:
Experiment in all cases: Tyrosine kinase inhibition assay
Format in all cases: biochemical
Conditions in all cases: single concentration 1.0 μM, read-out: percent inhibition
NTRK1 (TRKA) = NTRK1 (TRKA) (Homo sapiens, UniProt P04629)
Method in brief: (§1)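 Percent inhibition from a one-concentration (1.0 μM) Z′-LYTE biochemical screen at apparent-Km ATP; >80% scored as a hit.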

BRAF = BRAF (Homo sapiens, UniProt P15056)
Sequence of BRAF (P15056 whole entry): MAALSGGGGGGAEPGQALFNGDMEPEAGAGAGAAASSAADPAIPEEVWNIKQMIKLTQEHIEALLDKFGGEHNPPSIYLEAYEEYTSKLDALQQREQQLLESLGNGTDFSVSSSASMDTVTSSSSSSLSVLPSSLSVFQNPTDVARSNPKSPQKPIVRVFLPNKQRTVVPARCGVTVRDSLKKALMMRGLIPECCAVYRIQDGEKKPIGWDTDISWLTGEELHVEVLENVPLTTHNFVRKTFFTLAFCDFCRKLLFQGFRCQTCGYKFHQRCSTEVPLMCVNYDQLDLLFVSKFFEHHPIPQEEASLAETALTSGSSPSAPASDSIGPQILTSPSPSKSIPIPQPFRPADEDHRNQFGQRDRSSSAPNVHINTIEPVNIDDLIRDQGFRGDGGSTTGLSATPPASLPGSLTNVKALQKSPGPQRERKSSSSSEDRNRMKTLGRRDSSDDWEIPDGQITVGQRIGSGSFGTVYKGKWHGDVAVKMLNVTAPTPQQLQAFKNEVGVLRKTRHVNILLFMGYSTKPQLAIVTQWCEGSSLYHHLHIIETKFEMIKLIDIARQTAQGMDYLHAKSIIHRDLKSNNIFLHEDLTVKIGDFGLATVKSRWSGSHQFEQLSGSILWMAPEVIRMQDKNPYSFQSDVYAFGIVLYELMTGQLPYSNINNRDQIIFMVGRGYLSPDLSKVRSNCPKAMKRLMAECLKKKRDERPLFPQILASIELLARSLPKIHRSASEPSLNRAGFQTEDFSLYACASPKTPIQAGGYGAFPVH
Method in brief: as §1

TEC = target: T1, TEC (Homo sapiens, UniProt P42680)
T1 sequence (P42680 1-631): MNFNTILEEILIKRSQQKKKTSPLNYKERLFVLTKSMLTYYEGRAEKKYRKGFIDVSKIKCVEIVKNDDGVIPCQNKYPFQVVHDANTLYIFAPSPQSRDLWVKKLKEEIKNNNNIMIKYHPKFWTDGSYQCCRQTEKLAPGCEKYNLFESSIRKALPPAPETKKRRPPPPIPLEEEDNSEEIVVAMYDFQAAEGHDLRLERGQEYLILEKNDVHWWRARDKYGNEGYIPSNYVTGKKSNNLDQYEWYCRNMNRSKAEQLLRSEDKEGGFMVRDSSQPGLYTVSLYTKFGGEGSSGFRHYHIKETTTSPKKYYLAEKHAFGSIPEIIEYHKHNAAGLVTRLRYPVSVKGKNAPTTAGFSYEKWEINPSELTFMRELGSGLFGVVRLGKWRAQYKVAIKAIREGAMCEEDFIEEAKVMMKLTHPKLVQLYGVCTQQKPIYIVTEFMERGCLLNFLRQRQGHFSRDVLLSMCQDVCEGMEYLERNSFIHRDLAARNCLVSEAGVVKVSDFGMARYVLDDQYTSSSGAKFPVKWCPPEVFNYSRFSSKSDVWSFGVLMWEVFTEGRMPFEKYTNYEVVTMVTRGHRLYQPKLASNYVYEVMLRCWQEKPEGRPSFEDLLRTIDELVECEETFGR
Method in brief: as §1

DDR2 = target: T2, DDR2 (Homo sapiens, UniProt Q16832)
T2 sequence (Q16832 22-855): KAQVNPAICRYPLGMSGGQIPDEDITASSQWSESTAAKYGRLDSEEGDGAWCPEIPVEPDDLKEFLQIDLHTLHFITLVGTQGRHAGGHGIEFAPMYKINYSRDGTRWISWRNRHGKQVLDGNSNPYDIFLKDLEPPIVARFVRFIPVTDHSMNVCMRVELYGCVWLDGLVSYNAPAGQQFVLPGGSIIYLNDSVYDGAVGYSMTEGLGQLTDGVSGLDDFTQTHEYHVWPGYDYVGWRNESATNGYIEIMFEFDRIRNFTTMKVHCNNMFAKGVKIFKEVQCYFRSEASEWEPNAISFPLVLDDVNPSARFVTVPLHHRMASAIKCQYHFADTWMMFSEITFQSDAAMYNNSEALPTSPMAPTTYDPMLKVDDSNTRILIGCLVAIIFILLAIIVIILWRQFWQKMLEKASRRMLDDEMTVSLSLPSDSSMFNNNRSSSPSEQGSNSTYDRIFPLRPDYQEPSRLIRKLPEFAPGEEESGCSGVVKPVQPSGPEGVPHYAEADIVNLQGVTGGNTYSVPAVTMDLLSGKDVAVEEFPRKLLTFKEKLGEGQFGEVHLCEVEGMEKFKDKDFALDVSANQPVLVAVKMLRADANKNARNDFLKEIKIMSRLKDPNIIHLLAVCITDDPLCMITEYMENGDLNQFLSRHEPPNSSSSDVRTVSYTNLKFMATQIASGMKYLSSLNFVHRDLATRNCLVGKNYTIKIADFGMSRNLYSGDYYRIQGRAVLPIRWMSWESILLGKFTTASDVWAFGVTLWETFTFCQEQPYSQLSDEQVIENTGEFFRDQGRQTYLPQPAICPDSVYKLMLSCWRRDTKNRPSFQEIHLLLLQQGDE
Method in brief: as §1

EPHB1 = target: T3, EPHB1 (Homo sapiens, UniProt P54762)
T3 sequence (P54762 18-984): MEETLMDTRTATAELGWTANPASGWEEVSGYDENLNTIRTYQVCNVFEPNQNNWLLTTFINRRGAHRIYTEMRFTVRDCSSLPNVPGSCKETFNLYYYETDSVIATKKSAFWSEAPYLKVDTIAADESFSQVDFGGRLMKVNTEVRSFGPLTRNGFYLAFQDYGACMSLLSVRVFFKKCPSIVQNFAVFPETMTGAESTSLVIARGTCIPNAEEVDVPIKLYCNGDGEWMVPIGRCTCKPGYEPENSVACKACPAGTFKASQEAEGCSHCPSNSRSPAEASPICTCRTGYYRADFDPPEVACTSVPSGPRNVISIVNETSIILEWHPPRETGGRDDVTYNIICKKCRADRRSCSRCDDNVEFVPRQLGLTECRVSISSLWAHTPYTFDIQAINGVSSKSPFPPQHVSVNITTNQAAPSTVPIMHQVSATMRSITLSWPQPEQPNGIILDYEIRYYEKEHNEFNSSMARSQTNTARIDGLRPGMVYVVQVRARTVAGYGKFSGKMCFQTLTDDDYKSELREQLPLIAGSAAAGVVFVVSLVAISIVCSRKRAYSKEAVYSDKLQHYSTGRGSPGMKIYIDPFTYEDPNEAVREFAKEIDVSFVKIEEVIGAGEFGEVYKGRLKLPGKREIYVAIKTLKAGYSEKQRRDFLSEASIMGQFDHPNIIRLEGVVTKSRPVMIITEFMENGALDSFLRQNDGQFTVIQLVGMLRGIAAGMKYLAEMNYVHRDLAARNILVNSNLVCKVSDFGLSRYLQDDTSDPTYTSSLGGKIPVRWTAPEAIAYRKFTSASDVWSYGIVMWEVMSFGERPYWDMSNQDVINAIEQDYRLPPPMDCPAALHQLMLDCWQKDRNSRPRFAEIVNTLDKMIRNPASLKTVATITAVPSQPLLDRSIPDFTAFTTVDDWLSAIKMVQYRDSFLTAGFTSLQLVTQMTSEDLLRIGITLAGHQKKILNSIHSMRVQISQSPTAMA
Method in brief: as §1

Sequence of NTRK1 (TRKA) (P04629 33-796): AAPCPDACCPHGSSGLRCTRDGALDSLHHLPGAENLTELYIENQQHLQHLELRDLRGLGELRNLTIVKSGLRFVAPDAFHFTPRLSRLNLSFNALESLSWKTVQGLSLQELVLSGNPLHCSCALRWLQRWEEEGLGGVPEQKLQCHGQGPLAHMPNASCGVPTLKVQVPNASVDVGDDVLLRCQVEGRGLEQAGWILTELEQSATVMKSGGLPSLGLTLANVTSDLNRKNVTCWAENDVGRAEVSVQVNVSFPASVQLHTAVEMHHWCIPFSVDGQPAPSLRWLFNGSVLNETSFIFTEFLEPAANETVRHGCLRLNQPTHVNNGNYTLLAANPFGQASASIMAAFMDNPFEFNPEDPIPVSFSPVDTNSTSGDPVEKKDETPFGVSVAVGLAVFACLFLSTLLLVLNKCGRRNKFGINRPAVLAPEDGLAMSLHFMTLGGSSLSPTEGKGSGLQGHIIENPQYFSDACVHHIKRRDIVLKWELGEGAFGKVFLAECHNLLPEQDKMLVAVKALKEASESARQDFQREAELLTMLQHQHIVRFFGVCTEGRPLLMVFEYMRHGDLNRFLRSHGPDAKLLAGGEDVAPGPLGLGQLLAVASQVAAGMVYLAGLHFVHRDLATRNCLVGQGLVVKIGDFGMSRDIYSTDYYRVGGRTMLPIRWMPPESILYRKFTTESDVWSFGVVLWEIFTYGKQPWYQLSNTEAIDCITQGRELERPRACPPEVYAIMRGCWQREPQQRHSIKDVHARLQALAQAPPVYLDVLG

SMILES | inhibition at 1 µM (NTRK1 (TRKA)) | inhibition at 1 µM (BRAF) | inhibition at 1 µM (TEC) | inhibition at 1 µM (DDR2) | inhibition at 1 µM (EPHB1)
COc1cc2nccc(Oc3ccc(NC(=O)C4(C(=O)Nc5ccc(F)cc5)CC4)cc3)c2cc1OC [Cabozantinib, reference compound] | 98% | 13% | 5% | 100% | 99%
COc1cc2nccc(Oc3ccc(NC(=O)C4(NC(=O)c5ccc(F)cc5)CC4)cc3F)c2cc1OC [Cbo-02, N-(1-((4-((6,7-diMethoxyquinolin-4-yl)oxy)-3-fluorophenyl)carbamoyl)cyclopropyl)-4-fluorobenzamide] | 58% | 4% | 29% | 32% | 37%
COc1cc2nccc(Oc3ccc(NC(=O)C4(NC(=O)c5ccc(F)cc5)CC4)cc3F)c2cc1Oc1ccc(N)cc1F [Cbo-10] | 80% | 4% | 80% | 51% | 74%
COc1cc2nccc(Oc3ccc(NC(=O)C4(NC(=O)c5ccc(F)cc5)CC4)cc3F)c2cc1Oc1c(F)cc(N)cc1F [Cbo-14] | 71% | 1% | 77% | 60% | 75%
COc1cc2nccc(Oc3ccc(NC(=O)C4(C(=O)Nc5ccc(F)cc5)CC4)cc3F)c2cc1Oc1ccc(N)cc1F [Cbo-23] | 97% | 3% | 37% | 91% | 99%
